Reference: PubChem BioAssay (NCI)
Several values for one entry are separate records, joined by “and”; a condition that tells them apart may be missing. Identical values can stand only once.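 Growth conditions: 96-well plates. Treatment: test compound, 48 hours, 5 concentrations. Analysis: linear interpolation between bracketing concentrations; unreached endpoints set to highest concentration. Abbreviation: GI50, concentration required for 50% inhibition of growth. TGI is the concentration that stops growth completely.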

Key:
Assay in all cases: growth of human tumour cells (NCI), 48 h
M14 melanoma = system: M14 melanoma
SF-295 CNS = system: SF-295 CNS
RXF 393 renal = system: RXF 393 renal
RPMI-8226 leukemia = system: RPMI-8226 leukemia
HCT-116 colon = system: HCT-116 colon
T-47D breast = system: T-47D breast
BT-549 breast = system: BT-549 breast
EKVX NSCLC = system: EKVX NSCLC
HL-60(TB) leukemia = system: HL-60(TB) leukemia
OVCAR-4 ovarian = system: OVCAR-4 ovarian

Row | SMILES | TGI (M14 melanoma) | TGI (SF-295 CNS) | TGI (RXF 393 renal) | TGI (RPMI-8226 leukemia) | TGI (HCT-116 colon) | TGI (T-47D breast) | TGI (BT-549 breast) | TGI (EKVX NSCLC) | TGI (HL-60(TB) leukemia) | TGI (OVCAR-4 ovarian) | GI50 (EKVX NSCLC)
1 | Nc1nc(Cl)cc(NCC2(CO)CC(c3ccccc3)C2)n1 (stereo not given) | > 100 µM | > 100 µM | > 100 µM | > 100 µM | > 100 µM | > 100 µM | > 100 µM | 84.5 µM | 56.9 µM | > 100 µM | –
2 | COc1cc(CC(C)N[C@@H](C)c2ccccc2)cc(OC)c1 (stereo not given in full) | 21.9 µM and > 100 µM | 21.5 µM and > 100 µM | > 100 µM | 11.6 µM and > 100 µM | 26 µM and > 100 µM | 18.3 µM and > 100 µM | 20.4 µM and > 100 µM | 26.4 µM and > 100 µM | 10.7 µM and > 100 µM | 22.4 µM and > 100 µM | 12.2 µM and > 100 µM
3 | c1ccc(CNCCCNCCCCNCCCNCc2ccccc2)cc1 | 16.1 µM | 35.2 µM | 25.7 µM | 13.7 µM | 14.4 µM | 39.8 µM | 33.3 µM | 23.1 µM | 4 µM | 33.1 µM | –
4 | Cc1cc(O)c2cc3c(O)c(O)ccc3cc2c1 | 20 µM | 10.8 µM | 14.1 µM | > 100 µM | – | 6.28 µM | > 44.3 µM | 24.7 µM | 4.16 µM | 5.53 µM | –
5 | COC(=O)c1ccc(-n2c(C)nc(=O)c(-c3ccccc3)c2C)cc1 | > 100 µM | > 100 µM | > 100 µM | > 100 µM | > 100 µM | > 100 µM | > 100 µM | > 100 µM | > 100 µM | > 100 µM | –
6 | C=CCN1C(=O)/C(=C/c2ccccc2)N=C1SC1OC(COC(C)=O)C(OC(C)=O)C(OC(C)=O)C1OC(C)=O (stereo not given) | > 100 µM | > 100 µM | 36.6 µM | > 100 µM | 83 µM | > 100 µM | 65.5 µM | 63.7 µM | 60.6 µM | > 100 µM | –
7 | O=C1NC(=O)/C(=C/c2ccc(S(=O)(=O)N/N=C/c3ccccc3)cc2)N1 | > 100 µM | > 100 µM | > 100 µM | > 100 µM | > 100 µM | > 100 µM | > 100 µM | > 100 µM | > 100 µM | > 100 µM | –
8 | CC(=O)c1c2c(cc3c1CC1(C3)Cc3ccc4c(c3C1=O)CCC4)CCC2 (stereo not given) | > 100 µM | > 100 µM | > 100 µM | > 100 µM | > 100 µM | > 100 µM | > 100 µM | 96 µM | 15 µM | > 100 µM | –
